Source: US20250154105A1, “POLYCYCLIC COMPOUND AND USE THEREOF” (TYK MEDICINES, INC., priority 2021, published 2025)

Assays:
YAP-TEAD = YAP-TEAD inhibitor activity by Nano luciferase method (8xGTiiC-nLuc reporter in 293T cells); format: cell-based; settings: Homo sapiens, HEK-293T, 48 hours incubation, read-out: Nano-luciferase detection (IC50)
Excerpt: EXAMPLE 2: YAP-TEAD INHIBITOR ACTIVITY WAS DETECTED BY NANO LUCIFERASE METHOD
(1) Experimental materials and equipments: 293T cells were purchased from NANJING COBIOER BIOSCIENCES CO., LTD. DMEM medium (High sugar, no phenol red, Bio-Channel), DMSO (dimethyl sulfoxide), Lipo6000™ transfection reagent (Beyotime), pGL3B-8xGTiiC-nLuc-CMV-fLuc plasmid, 0.25% EDTA-Tripsin (trypsin digest), 1×PBS (phosphate buffer, PH7.2), 96-well white cell culture plate (PerkinElmer), fetal bovine serum (FBS), 10,000 U/mL penicillin-G/streptomycin, high-speed freezing centrifuge (EPPENDORF 5810R), 37° C. CO2 incubator, Vi-cell® Cell Counter, Envision Microplate Reader (PerkinElmer).
The revived 293T cells were inoculated into a 10 cm culture dish and placed in an incubator with 5% CO2, and cultured at constant temperature of 37° C. To ensure transfection efficiency, cells at logarithmic phase (cell density of approximately 50%-70%) should be used.
On the day before transfection, cells at the logarithmic phase were digested with Trypsin-EDTA, and culture medium was added to terminate digestion. The cell suspension was prepared by blowing and mixing using a pipette.
Cell concentration was measured using Vi-cell, and the cell suspension was diluted to a suspension of 5*10^^5 cells per milliliter. After preparing the cell suspension, the suspension was gently mixed. 10 ml of liquid was added to a 10 cm culture dish. In this way, the number of cells in each 10 cm culture dish was 5*10^^6. The cells were incubated at a constant temperature of 37° C. for 1 day in an incubator with 5% CO2.
Two clean and sterile centrifuge tubes were taken and added with 750 μL opti-MEM Medium without antibiotics and serum, respectively. Then one tube was added with 15 μg Plasmid (pGL3B-8xGTiiC-nLuc-CMV-fLuc), and gently blew and mixed well using a pipette; the other tube was added with Lipo6000 transfection reagent, and gently blew and mixed using a pipette. After standing at room temperature for 5 minutes, the culture solution containing DNA was added gently to the culture solution containing Lipo6000 transfection reagent, and mixed well by gently inverting the centrifuge tube, then standing at room temperature for 5 minutes.
The above mixture was added evenly to a 10 cm culture dish and replaced with fresh complete culture medium after 6 hours of cultivation.
After transfection for 1 day, cells were digested with Trypsin EDTA, and culture medium was added to terminate the digestion. The cell suspension was prepared by blowing and mixing using a pipette.
Cell concentration was measured using Vi-cell, and the cell suspension was diluted to a suspension of 20000 cells per milliliter.
After preparing the cell suspension, the suspension was gently mixed, and added to 96-well plate with 100 μL per well. Thus, the density of the cells to be tested is 2000 cells per well.
The inoculated cell culture plate was placed in the incubator for cultivation, and after about 24 hour, compounds with concentration gradient were added.
10 mM compound stock solution was diluted with culture medium to 50 μM. Compound solution of 50 μM was added to the third column of the deep well plate, 216 μL of culture medium containing 0.5% DMSO was added to the fourth to eleventh columns, successively.
Gradient dilution: taking 100 μL of solution from the third column and adding the solution to the fourth column and mixing well; then taking 100 µL of solution from the fourth column again and adding the solution to the fifth column, repeating this operation until the eleventh column.
Taking 25 μL of compound solution from the deep well plate and adding it to a 96-well culture plate using a multi-channel pipette. Repeating four times on the 96 well plate for each compound. Finally, a concentration gradient of 1:3.16 was formed in the 96-well plate with a maximum concentration of 10,000 nM. The • (5) Addition of Nano Luciferase Detection Reagent and Read […]

[1] = tested on: human pleural mesothelioma cells NCI-H226; assay: Cell anti-proliferation experiment (CCK8), NCI-H226; format: cell-based
Excerpt: TEST EXAMPLE 1 CELL ANTI-PROLIFERATION EXPERIMENT
Determination of proliferation inhibition of YAP-TEAD inhibitor compounds on human pleural mesothelioma cells NCI-H226
Experimental materials and equipments: Human pleural mesothelioma cells NCI-H226 was purchased from NANJING COBIOER BIOSCIENCES CO., LTD. RPMI-1640 medium (Bio-Channel), DMSO (dimethyl sulfoxide), CCK8 (WST-8) Cell Assay Kit (Beyotime), 0.25% EDTA-Tripsin (trypsin digest), 1×PBS (phosphate buffer, PH7.2), 96-well plate (Corning), fetal bovine serum (FBS), 10,000 U/mL penicillin-G/streptomycin, high-speed freezing centrifuge (EPPENDORF 5810R), enzyme-linked immunosorbent assay (Tecan Spark).
1. Cell plating • A) Tumor cells were cultured to 80-90% density in RPMI-1640 (containing 10% FBS and 100 U/mL penicillin-G/streptomycin) under the condition of 37° C., 5% CO2 and saturated humidity. • B) The culture medium was removed from the 10 cm culture dish. • C) Cells were washed with 10 ml 1×PBS. • D) 4 ml of 0.25% EDTA-Tripsin was added to digest pancreatin for 5 minutes in an incubator at 37° C. and 5% CO2. Then the mixture was transferred to a 15 ml centrifuge tube, and centrifuged for 5 minutes at 200 g. The supernatant was discarded to obtain cell precipitation. • E) The cell precipitation was resuspended with 4 ml of […], counted and adjusted to 10,000 cells/ml. • F) The cell suspension was added to a 96-well plate with a volume of 100 μL per well and cultured overnight in an incubator at 37° C. and 5% CO2.
• Compound dilution • A) Preparation of gradient dilution solutions of the tested compounds: the tested compounds was configured to 1 mM stock solution. Then […] of stock solution was dissolved in 1.5 ml of DMSO-free culture solution, and then 3-fold continuous gradient dilution with 0.1% DMSO culture solution was performed to get a total of 9 concentrations. The diluted concentrations of the compound were as follows: 333.33 nM, 111.11 nM, 37.03 nM, 12.35 nM, 4.15 nM, 1.37 nM, 0.46 nM, 0.15 nM • B) After full mixing, 100 μL of culture compound solution was taken to replace the culture solution in the cell culture plate, with 4 duplicated wells at each concentration; • C) The cells were transferred to the incubator to incubate for 3 days.
• A) the cell culture plate was taken out and added with 10 μl of CCK-8 (WST-8) solution per well in the biosafety cabinet; • B) The cell culture plate was put back into the incubator and continued to incubate for 3 hours; • C) 450 nm wavelength was selected to measure absorbance value on TECAN enzyme linked immunosorbent assay detector.
The following formula was used to calculate the cell viability (% Cell Viability); • Cell Viability (%)=[A(Drug-added)-A(Blank)]/[A(0 Drug-added)-A(blank)][…] • A (Drug-added): The absorbance of wells containing cells, CCK8 solution, and drug solution. • A (Blank): The absorbance of wells containing culture medium and CCK8 solution, but without cells. • A (0 Drug-added): The absorbance of wells containing cells, CCK8 solution, but without drug solution. • Cell viability: Cell proliferation viability or cytotoxicity viability was determined by the IC50 value obtained by curve fitting using GraphPad Prism 8 software.

IC50 (YAP-TEAD) [µM]	IC50 [1] [µM]	Structure (SMILES)
1 to 5	1 to 5	CNC[C@H](C)NC(=O)c1ccc2c(c1)c1nn(C)cc1c(=O)n2-c1ccc(C(F)(F)F)cc1 [Example T-120]
1 to 5	1 to 5	Cn1cc2c(=O)n(-c3ccc(C(F)(F)F)cc3)c3ccc(C(=O)Nc4c[nH]cn4)cc3c2n1 [Example T-121]
1 to 5	1 to 5	C[C@H](NC(=O)c1ccc2c(c1)c1nn(C)cc1c(=O)n2-c1ccc(C(F)(F)F)cc1)c1ccc(C(F)(F)F)cn1 [Example T-123]
1 to 5	1 to 5	Cc1ccc([C@H](C)NC(=O)c2ccc3c(c2)c2nn(C)cc2c(=O)n3-c2ccc(C(F)(F)F)cc2)nc1 [Example T-124]
1 to 5	1 to 5	C[C@@H](NC(=O)c1ccc2c(c1)c1nn(C)cc1c(=O)n2-c1ccc(C(F)(F)F)cc1)c1ncccc1F [Example T-125]
≤ 1	≤ 1	C[C@H](NC(=O)c1ccc2c(c1)c1nn(C)cc1c(=O)n2-c1ccc(C(F)(F)F)cc1)c1ncccc1F [Example T-126]
1 to 5	1 to 5	C[C@@H](NC(=O)c1ccc2c(c1)c1nn(C)cc1c(=O)n2-c1ccc(C(F)(F)F)cc1)c1ccc(F)cn1 [Example T-127]
≤ 1	≤ 1	C[C@H](NC(=O)c1ccc2c(c1)c1nn(C)cc1c(=O)n2-c1ccc(C(F)(F)F)cc1)c1cc(Cl)ccn1 [Example T-128]
1 to 5	1 to 5	C[C@H](NC(=O)c1ccc2c(c1)c1nn(C)cc1c(=O)n2-c1ccc(C(F)(F)F)cc1)c1ccc(Cl)cn1 [Example T-130]
1 to 5	1 to 5	C[C@H](NC(=O)c1ccc2c(c1)c1nn(C)cc1c(=O)n2-c1ccc(C(F)(F)F)cc1)c1cccc(Cl)n1 [Example T-132]
1 to 5	1 to 5	Cn1cc2c(=O)n(-c3ccc(C(F)(F)F)cc3)c3ccc(C(=O)NCc4ccncn4)cc3c2n1 [Example T-133]
≤ 1	≤ 1	COc1cccc([C@H](C)NC(=O)c2ccc3c(c2)c2nn(C)cc2c(=O)n3-c2ccc(C(F)(F)F)cc2)n1 [Example T-134]
1 to 5	1 to 5	COc1cccnc1[C@@H](C)NC(=O)c1ccc2c(c1)c1nn(C)cc1c(=O)n2-c1ccc(C(F)(F)F)cc1 [Example T-135]
1 to 5	1 to 5	COc1ccnc([C@@H](C)NC(=O)c2ccc3c(c2)c2nn(C)cc2c(=O)n3-c2ccc(C(F)(F)F)cc2)c1 [Example T-136]
≤ 1	≤ 1	C[C@H](NC(=O)c1ccc2c(c1)c1nn(C)cc1c(=O)n2-c1ccc(C(F)(F)F)cc1)c1ccccc1 [Example T-138]
1 to 5	1 to 5	Cn1cc2c(=O)n(-c3ccc(C(F)(F)F)cc3)c3ccc(C(=O)NCc4ncccn4)cc3c2n1 [Example T-139]
1 to 5	1 to 5	Cn1cc2c(=O)n(-c3ccc(C(F)(F)F)cc3)c3ccc(C(=O)NCc4cnccn4)cc3c2n1 [Example T-140]
1 to 5	1 to 5	Cn1cc2c(=O)n(-c3ccc(C(F)(F)F)cc3)c3ccc(C(=O)N[C@@H](c4ccccc4)c4ccccn4)cc3c2n1 [Example T-142]
1 to 5	1 to 5	COc1ccnc([C@H](C)NC(=O)c2ccc3c(c2)c2nn(C)cc2c(=O)n3-c2ccc(C(F)(F)F)cc2)c1 [Example T-143]
1 to 5	1 to 5	C[C@H](NC(=O)c1ccc2c(c1)c1nn(C)cc1c(=O)n2-c1ccc(C(F)(F)F)cc1)c1ccc(F)cn1 [Example T-144]
≤ 1	≤ 1	Cc1cccnc1[C@H](C)NC(=O)c1ccc2c(c1)c1nn(C)cc1c(=O)n2-c1ccc(C(F)(F)F)cc1 [Example T-145]
1 to 5	1 to 5	C[C@H](NC(=O)c1ccc2c(c1)c1nn(C)cc1c(=O)n2-c1ccc(C(F)(F)F)cc1)c1cccnc1 [Example T-146]
≤ 1	≤ 1	C[C@H](NC(=O)c1ccc2c(c1)c1nn(C)cc1c(=O)n2-c1ccc(C(F)(F)F)cc1)c1cccc(N)n1 [Example T-148]
≤ 1	≤ 1	CNc1cccc([C@H](C)NC(=O)c2ccc3c(c2)c2nn(C)cc2c(=O)n3-c2ccc(C(F)(F)F)cc2)n1 [Example T-149]
≤ 1	≤ 1	C[C@H](NC(=O)c1ccc2c(c1)c1nn(C)cc1c(=O)n2-c1ccc(C(F)(F)F)cc1)c1cccc(N(C)C)n1 [Example T-150]
≤ 1	≤ 1	Cc1cccc([C@H](C)NC(=O)c2ccc3c(c2)c2nn(C)cc2c(=O)n3-c2ccc(C(F)(F)F)cc2)n1 [Example T-151]
≤ 1	≤ 1	C[C@H](NC(=O)c1ccc2c(c1)c1nn(C)cc1c(=O)n2-c1ccc(C(F)(F)F)cc1)c1cccc(C#N)n1 [Example T-152]
≤ 1	≤ 1	C[C@H](NC(=O)c1ccc2c(c1)c1nn(C)cc1c(=O)n2-c1ccc(C(F)(F)F)cc1)c1cccc(F)n1 [Example T-153]
1 to 5	1 to 5	C[C@H](NS(=O)(=O)c1ccc2c(c1)c1nn(C)cc1c(=O)n2-c1ccc(C(F)(F)F)cc1)c1ccccc1 [Example T-165]
